Measured values reported in BindingDB's records for doi:10.1021/jm00168a025 (State University of New York, 1990).

The compounds below were run against Squalene monooxygenase (Sus scrofa) (assay: Inhibition of pig liver squalene epoxidase).

SMILES	IC50 [µM]
CC(C)=CCC/C(C)=C/CC/C(C)=C/CC/C=C(\C)CC/C=C(\C)CCCO	4
CC(C)=CCC/C(C)=C/CC/C(C)=C/CC/C=C(\C)CC/C=C(\C)CCCCO	4
CC(C)=CCC/C(C)=C/CC/C(C)=C/CC/C=C(\C)CC/C=C(\C)CC/C=C(\C)CCCO	> 400

Second part, the compound after the results:

IC50 [µM]	SMILES
100	CC(C)=CCC/C(C)=C/CC/C(C)=C/CC/C=C(\C)CCCO
> 400	CC(C)=CCC/C(C)=C/CC/C(C)=C/CCCO
